Blank lines part the entries; values can stand above or below the compound they belong to.
What was measured:
[1] = Photophysical properties (absorption, emission, fluorescence intensity, quantum yield) versus IRDye 800CW; format: physicochemical
[2] = IRDye 800CW used as standard; cited from earlier work
[3] = Absorption wavelength of the cyanine dyes in methanol (halo substitution effect); format: physicochemical; details: Table 2
From the text: [table] Design Principle: We analyzed the properties of a dye scaffold and related compounds and the corresponding substitution effects on the excitation and emission wavelengths. The small size of fluorine is unlikely to produce steric effects, therefore, we explored the electronic effects of fluorine and related substitutions. The Hammett equation (σ-value) is an important tool to understand the electronic effects of the substituents, therefore, we explored the correlation of the wavelength (λMeOH) and the σ-value (vide infra): […]

[4] = test system: U87GM cells; assay: Immunocytochemical binding, blocking and carboxylate control assay in U87GM cells; format: cell-based; details: tested up to 5 μM, noted above 2 μM
Procedure: RGD (Arg-Gly-Asp), the recognition motif used to bind the integrin receptors, was labeled with compound 17. The characteristics of RGD/17 conjugate and the analogous dye carboxylate 16 were evaluated in a cell-based assay.
Immunocytochemical assays provide a tool for screening a compound for specificity of a labeled agent. Binding assays give valuable information on affinity of the labeled agent to the intended target.
Compound 17 was conjugated to the peptide RGD by the general procedure set forth in Example 32.
The cell lines U87GM and PC3MLN4 were assayed. Assays included binding, blocking, and carboxylate control. Serial dilutions of compound 16 were prepared at concentrations of 200-6.25 nM. Blocking was accomplished with unlabeled RGD at concentrations of 10-0.31 μM with the addition of 200 nM compound 17-RGD conjugates in all test wells. The compound 16 was evaluated as a dye control for non-specific binding at relatively high levels from 5-0.16 μM with U87GM cells and 1-0.002 μM with PC3 cells.
In the second round of testing with U87GM cells, concentrations of unlabeled RGD and compound 17/RGD were increased (FIGS. 8A and 8B). Binding assay concentrations utilized 0.8-400 nM while the blocking assay used 0.06-30 μM unlabeled RGD with an addition of 200 nM 17/RGD.

[5] = In vivo clearance imaging in nude mice (Pearl Impulse); details: 1 nmole; for Total (signal): 800 channel
Procedure: Two nude mice were injected with 1 nmole of either compound 16 or IRDye 800CW carboxylate. They were then imaged longitudinally over the next 24 h with the Pearl Impulse imaging system. The results are presented in FIG. 9: in vivo clearance in nudes (FIG. 9A), whole body dorsal views (FIG. 9B), and the rate of clearance (FIG. 9C). The clearance data is presented below in Table 4.

[6] = Comparison of dye emission maxima and quenching; format: physicochemical; details: IRDye 800CW samples, excitation 770 nm; for Peak fluorescence emission intensity: PBS pH 7.4; for Percent Quenching: versus dye-linker standard
Procedure: Solutions of dye-linker standards and dye-linker-quencher samples were diluted into PBS buffer (pH 7.4) to give a dye-specific absorbance less than 0.2 AU. The fluorescence spectra of each dilution were then taken at a consistent excitation wavelength (670 nm for HETD and 770 nm for IRDye 800CW). The emission spectra were collected from 680-1000 nm for the HETD samples and 780-1000 nm for the IRDye 800CW samples.

SMILES: CC1(C)C(/C=C/C2=C(c3c(F)cc(F)cc3F)C(=C/C=C3/N(CCCS(=O)(=O)[O-])c4ccc(S(=O)(=O)[O-])cc4C3(C)C)/CC(C(=O)O)C2)=[N+](CCCS(=O)(=O)[O-])c2ccc(S(=O)(=O)[O-])cc21.[Na+].[Na+].[Na+] (stereo not shown) [Compound 16]
λMeOH [3]: 785 nm | Non-specific binding of the dye component alone [4]: Relatively high binding | Total (signal) ([5]; 1 Min): 109682.80 | Total (signal) ([5]; 17 Min): 282046.59 | Total (signal) ([5]; 45 Min): 286573.94 | Total (signal) ([5]; 71 Min): 266647.59 | Total (signal) ([5]; 190 Min): 139736.97 | Total (signal) ([5]; 276 Min): 76493.30 | Total (signal) ([5]; 1435 Min): 1652.69 | Clearance in vivo ([5]; nude mice, imaged over 24 h): good clearance

SMILES: CC1(C)C(/C=C/C2=C(Oc3ccc(S(=O)(=O)[O-])cc3)C(=C/C=C3/N(CCCCS(=O)(=O)[O-])c4ccc(S(=O)(=O)[O-])cc4C3(C)C)/CCC2)=[N+](CCCCCC(=O)NCCCOCCOCCOCCCNC(=O)CCCCC[N+]2=C(/C=C/C3=C(c4ccccc4F)C(=C/C=C4/N(CCCS(=O)(=O)[O-])c5ccc(N(CCCS(=O)(=O)[O-])CCCS(=O)(=O)[O-])cc5C4(C)C)/CCC3)C(C)(C)c3c2ccc2cc(S(=O)(=O)[O-])ccc32)c2ccc(S(=O)(=O)[O-])cc21.[Na+].[Na+].[Na+].[Na+].[Na+].[Na+] [Compound 38]
Peak fluorescence emission intensity [6]: 385983 | Percent Quenching [6]: 71.3%

SMILES: CC1(C)C(/C=C/C2=C(Oc3ccc(S(=O)(=O)[O-])cc3)C(=C/C=C3/N(CCCCCC(=O)NCCC(=O)N4Cc5ccccc5C#Cc5ccccc54)c4ccc(S(=O)(=O)[O-])cc4C3(C)C)/CCC2)=[N+](CCCCS(=O)(=O)[O-])c2ccc(S(=O)(=O)[O-])cc21.[Na+].[Na+].[Na+] [Compound 30]
Peak fluorescence emission intensity [6]: 1203780

SMILES: CC1(C)C(/C=C/C2=C(Oc3ccc(S(=O)(=O)[O-])cc3)C(=C/C=C3/N(CCCCS(=O)(=O)[O-])c4ccc(S(=O)(=O)[O-])cc4C3(C)C)/CCC2)=[N+](CCCCCC(=O)NCCOCCOCCOCCOCCOCCOCCOCCOCCOCCOCCOCCN)c2ccc(S(=O)(=O)[O-])cc21.O=C(O)C(F)(F)F.[Na+].[Na+].[Na+] [IRDye 800CW-PEG11-NH2]
Peak fluorescence emission intensity [6]: 1272820

More lines, main results first:

Fl Intensity of X / Fl Intensity of 800 CW, Odyssey ([1]; 0.1 μM solutions in 1XPBS, Odyssey): 100% | Fl Intensity of X / Fl Intensity of 800 CW, Fluorimeter ([1]; 0.1 μM solutions in 1XPBS, fluorimeter): 100% | Abs Max PBS ([1]; in PBS): 775 nm | EmMax PBS ([1]; in PBS): 790 nm
SMILES: CC1(C)C(=CC=C2CCCC(C=CC3=[N+](CCCCCC(=O)[O-])c4ccc(S(=O)(=O)[O-])cc4C3(C)C)=C2Oc2ccc(S(=O)(=O)[O-])cc2)N(CCCCS(=O)(=O)[O-])c2ccc(S(=O)(=O)[O-])cc21.[Na+].[Na+].[Na+].[Na+] [IRDye 800CW, reference compound]
Quantum Yield of the standard [2]: 0.07

Peak fluorescence emission intensity [6]: 438981
SMILES: CC1(C)C(/C=C/C2=C(Oc3ccc(S(=O)(=O)[O-])cc3)C(=C/C=C3/N(CCCCS(=O)(=O)[O-])c4ccc(S(=O)(=O)[O-])cc4C3(C)C)/CCC2)=[N+](CCCCCC(=O)NCCOCCOCCOCCOCCOCCOCCOCCOCCOCCOCCOCCNC(=O)CCCCC[N+]2=C(/C=C/C3=C(c4ccccc4F)C(=C/C=C4/N(CCCS(=O)(=O)[O-])c5ccc(N(CCCS(=O)(=O)[O-])CCCS(=O)(=O)[O-])cc5C4(C)C)/CCC3)C(C)(C)c3c2ccc2cc(S(=O)(=O)[O-])ccc32)c2ccc(S(=O)(=O)[O-])cc21.[Na+].[Na+].[Na+].[Na+].[Na+].[Na+] [Compound 39]
Percent Quenching [6]: 65.5%

Peak fluorescence emission intensity [6]: 1245060
SMILES: CC1(C)C(/C=C/C2=C(Oc3ccc(S(=O)(=O)[O-])cc3)C(=C/C=C3/N(CCCCCC(=O)NCCOCCOCCOCCN=[N+]=[N-])c4ccc(S(=O)(=O)[O-])cc4C3(C)C)/CCC2)=[N+](CCCCS(=O)(=O)[O-])c2ccc(S(=O)(=O)[O-])cc21.[Na+].[Na+].[Na+] [Compound 29, sodium 2-((E)-2-((E)-3-((E)-2-(1-(1-azido-13-oxo-3,6,9-trioxa-12-azaoctadecan-18-yl)-3,3-dimethyl-5-sulfonatoindolin-2-ylidene)ethylidene)-2-(4-sulfonatophenoxy)cyclohex-1-enyl)vinyl)-3,3-dimethyl-1-(4-sulfonatobutyl)-3H-indolium-5-sulfonate]
